Columns and labels:
[1] = tested on: Listeria monocytogenes; assay: MIC of host defense peptides in liquid medium (microbroth dilution); format: cell-based; settings: 37°C; for MIC values against L. monocytogenes (range over strains): range over 25 strains, MHB pH 7.4, 18–24 h; for MIC: 18–24 h
Experimental: (§1) Experiments were carried out with a collection of 25 Listeria monocytogenes strains (Table 1) and 16 Staphylococcus aureus strains (Table 2) representing different lineages and serotypes (L. monocytogenes), spa types (S. aureus), and origins (food processing environment, food products, and human clinical isolates). Six L. monocytogenes strains were mutants of the EGD strain and were mutated in genes known to be involved in stress tolerance. The S. aureus collection comprised two deletion mutants, strains Sa113/ΔmprF [8] and Sa113/ΔdltA [7], known to be more sensitive to host defense peptides. Two of the S. aureus strains could not immediately be assigned to an existing spa type and we are in the process of acquiring the additional information that is needed to assign a new spa type to them. The strains were obtained from The National Institute of Aquatic Resources and The National Food Institute, Technical University of Denmark, Faculty of Life Sciences, University of Copenhagen, Denmark, Statens Serum Institut, Denmark, University of Würzburg, Germany and Campden Food and Drink Association, United Kingdom. Stock cultures were stored at -80°C in 4% (w/V) glycerol, 0.5% (w/V) glucose, and 2.0% (w/V) skimmed milk powder. The bacteria were grown in Brain Heart Infusion (BHI) broth (Oxoid, CM0225), Tryptone Soy Broth (TSB) (Oxoid, CM129), and cation-adjusted Mueller-Hinton II Broth (MHB) (Becton Dickinson, 212322) adjusted to pH 7.4. To avoid unspecific binding of host defense peptides to plastic ware and agar, all MIC determinations were carried out using polypropylene plastic ware and radial diffusion assays were carried out in MHB supplemented with 1% agarose (Invitrogen, 15510-027) as gelling agent.
(§2) Protamine was purchased from Sigma (P4020-5G). Plectasin, novicidin, and novispirin G10 were supplied by Novozymes A/S. Recombinant HBD-3 was purchased from PeproTech (300-52).
(§3) The strain collection was tested for sensitivity to protamine, plectasin, novicidin, and novispirin G10 by determining their minimal inhibitory concentration (MIC) using a microbroth dilution method. Colonies from a BHI agar plate incubated overnight were suspended in MHB pH 7.4 to a turbidity of 0.11–0.12 at 546 nm (approx. 1.0 × 10^8 CFU/ml) and diluted in MHB to a concentration of 5.0 × 10^5 CFU/ml. 90 μl of bacterial suspension was incubated with 10 μl of peptide solution in polypropylene 96-well plates (Nunc, 442587) for 18–24 h at 37°C. The peptide solutions were made fresh on the day of assay and diluted two-fold. The range of concentrations assayed were 0.031–32 μg/ml for novicidin, 0.125–128 μg/ml for protamine and novispirin G10, and 0.25–256 μg/ml for plectasin. MIC was the lowest peptide concentration at which visual growth was inhibited. The minimum bactericidal concentration (MBC) values were determined by plating l0 μl samples from wells with no visible growth onto BHI agar plates. MBC was the lowest concentration of each peptide of which 99.9% reduction of the initial inoculum was observed.

[2] = tested on: Staphylococcus aureus; assay: as above; format: cell-based; settings: 37°C; for MIC values against S. aureus (range over strains): range over 16 strains, MHB pH 7.4, 18–24 h; for MIC: 18–24 h
Experimental: as §1, §2, §3

[3] = tested on: L. monocytogenes and S. aureus; assay: Minimum bactericidal concentration (MBC), plating from MIC wells; format: cell-based, Listeria monocytogenes, Staphylococcus aureus; settings: 99.9% reduction of initial inoculum; 10 μl from wells with no visible growth plated on BHI agar
Experimental: as §3

[4] = strain 2275 (EGD dps del), MHB pH 7.4, 5.0 × 10^5 CFU/ml
[5] = strain 2307 (EGD resD del), MHB pH 7.4, 5.0 × 10^5 CFU/ml
[6] = strain 2315 (EGD sigB del), MHB pH 7.4, 5.0 × 10^5 CFU/ml
[7] = strain 2317 (EGD prfA del), MHB pH 7.4, 5.0 × 10^5 CFU/ml
[8] = strain 2374 (EGD perR ins), MHB pH 7.4, 5.0 × 10^5 CFU/ml
[9] = strain 2375 (EGD perR del), MHB pH 7.4, 5.0 × 10^5 CFU/ml
[10] = strain 4239, MHB pH 7.4, 5.0 × 10^5 CFU/ml
[11] = strain 4446, MHB pH 7.4, 5.0 × 10^5 CFU/ml
[12] = strain 4459, MHB pH 7.4, 5.0 × 10^5 CFU/ml
[13] = strain 4666, MHB pH 7.4, 5.0 × 10^5 CFU/ml
[14] = strain 6895, MHB pH 7.4, 5.0 × 10^5 CFU/ml
[15] = strain 7291, MHB pH 7.4, 5.0 × 10^5 CFU/ml
[16] = strain 7418, MHB pH 7.4, 5.0 × 10^5 CFU/ml
[17] = strain EGD (wildtype), MHB pH 7.4, 5.0 × 10^5 CFU/ml
[18] = strain H13-1, MHB pH 7.4, 5.0 × 10^5 CFU/ml
[19] = strain LO28 (wildtype), MHB pH 7.4, 5.0 × 10^5 CFU/ml
[20] = strain La22, MHB pH 7.4, 5.0 × 10^5 CFU/ml
[21] = strain La111, MHB pH 7.4, 5.0 × 10^5 CFU/ml
[22] = strain M103-1, MHB pH 7.4, 5.0 × 10^5 CFU/ml
[23] = strain N53-1, MHB pH 7.4, 5.0 × 10^5 CFU/ml
[24] = strain No40-1, MHB pH 7.4, 5.0 × 10^5 CFU/ml
[25] = strain O57, MHB pH 7.4, 5.0 × 10^5 CFU/ml
[26] = strain R479a, MHB pH 7.4, 5.0 × 10^5 CFU/ml
[27] = strain Scott A, MHB pH 7.4, 5.0 × 10^5 CFU/ml
[28] = strain V518a, MHB pH 7.4, 5.0 × 10^5 CFU/ml
[29] = strain 796, MHB pH 7.4, 5.0 × 10^5 CFU/ml
[30] = strain 2148-jvi, MHB pH 7.4, 5.0 × 10^5 CFU/ml
[31] = strain 8325-4 (wildtype), MHB pH 7.4, 5.0 × 10^5 CFU/ml
[32] = strain 14943, MHB pH 7.4, 5.0 × 10^5 CFU/ml
[33] = strain 15033, MHB pH 7.4, 5.0 × 10^5 CFU/ml
[34] = strain B29997, MHB pH 7.4, 5.0 × 10^5 CFU/ml
[35] = strain B31369, MHB pH 7.4, 5.0 × 10^5 CFU/ml
[36] = strain J15033, MHB pH 7.4, 5.0 × 10^5 CFU/ml
[37] = strain K3-B2, MHB pH 7.4, 5.0 × 10^5 CFU/ml
[38] = strain KES 439, MHB pH 7.4, 5.0 × 10^5 CFU/ml
[39] = strain KES 626, MHB pH 7.4, 5.0 × 10^5 CFU/ml
[40] = strain KES 735, MHB pH 7.4, 5.0 × 10^5 CFU/ml
[41] = strain KES 855, MHB pH 7.4, 5.0 × 10^5 CFU/ml
[42] = strain Sa113 (wildtype), MHB pH 7.4, 5.0 × 10^5 CFU/ml
[43] = strain ΔdltA (Sa113 dltA ins), MHB pH 7.4, 5.0 × 10^5 CFU/ml
[44] = strain ΔmprF (Sa113 mprF del), MHB pH 7.4, 5.0 × 10^5 CFU/ml

novicidin was tested, and the “MIC values against L. monocytogenes (range over strains)” value [1] was 2 to 8 mg/L, the MIC [1, 4] was 4 mg/L and the MIC [1, 5] was 2 mg/L. The MIC [1, 6] was 4 mg/L, the MIC [1, 7] was 4 mg/L and the MIC [1, 8] was 4 mg/L. The MIC [1, 9] was 4 mg/L, the MIC [1, 10] was 4 mg/L and the MIC [1, 11] was 4 mg/L. For the same substance, the MIC [1, 12] was 4 mg/L, the MIC [1, 13] was 8 mg/L and the MIC [1, 14] was 4 mg/L. The MIC [1, 15] was 8 mg/L, the MIC [1, 16] was 4 mg/L and the MIC [1, 17] was 4 mg/L. It also gave an MIC [1, 18] of 4 mg/L, an MIC [1, 19] of 2 mg/L and an MIC [1, 20] of 4 mg/L. It also gave an MIC [1, 21] of 4 mg/L, an MIC [1, 22] of 4 mg/L and an MIC [1, 23] of 2 mg/L. The MIC [1, 24] was 4 mg/L, the MIC [1, 25] was 4 mg/L and the MIC [1, 26] was 4 mg/L. The MIC [1, 27] was 4 mg/L, the MIC [1, 28] was 8 mg/L and the “MIC values against S. aureus (range over strains)” value [2] was 0.5 to 12 mg/L. It also gave an MIC [2, 29] of 6 mg/L, an MIC [2, 30] of 4 mg/L and an MIC [2, 31] of 8 mg/L. For the same substance, the MIC [2, 32] was 8 mg/L, the MIC [2, 33] was 8 mg/L and the MIC [2, 34] was 4 mg/L. The MIC [2, 35] was 12 mg/L, the MIC [2, 36] was 8 mg/L and the MIC [2, 37] was 4 mg/L. It also gave an MIC [2, 38] of 4 mg/L, an MIC [2, 39] of 4 mg/L and an MIC [2, 40] of 4 mg/L. It also gave an MIC [2, 41] of 4 mg/L, an MIC [2, 42] of 6 mg/L and an MIC [2, 43] of 0.5 mg/L. The MIC [2, 44] was 1 mg/L and the “minimum bactericidal concentrations (MBC)” value [3] was “identical to the MICs”.
In the case of protamine, the “MIC values against L. monocytogenes (range over strains)” value [1] is reported as 8 to 32 mg/L, the MIC [1, 4] is reported as 16 mg/L and the MIC [1, 5] is reported as 8 mg/L. For the same substance, the MIC [1, 6] was 8 mg/L, the MIC [1, 7] was 16 mg/L and the MIC [1, 8] was 32 mg/L. For the same substance, the MIC [1, 9] was 32 mg/L, the MIC [1, 10] was 32 mg/L and the MIC [1, 11] was 16 mg/L. For the same substance, the MIC [1, 12] was 16 mg/L, the MIC [1, 13] was 8 mg/L and the MIC [1, 14] was 16 mg/L. For the same substance, the MIC [1, 15] was 32 mg/L, the MIC [1, 16] was 32 mg/L and the MIC [1, 17] was 8 mg/L. It also gave an MIC [1, 18] of 16 mg/L, an MIC [1, 19] of 8 mg/L and an MIC [1, 20] of 16 mg/L. It also gave an MIC [1, 21] of 8 mg/L, an MIC [1, 22] of 32 mg/L and an MIC [1, 23] of 16 mg/L. The MIC [1, 24] was 16 mg/L, the MIC [1, 25] was 16 mg/L and the MIC [1, 26] was 16 mg/L. The MIC [1, 27] was 16 mg/L, the MIC [1, 28] was 32 mg/L and the “MIC values against S. aureus (range over strains)” value [2] was 8 to 32 mg/L. For the same substance, the MIC [2, 29] was 16 mg/L, the MIC [2, 30] was 16 mg/L and the MIC [2, 31] was 16 mg/L. For the same substance, the MIC [2, 32] was 16 mg/L, the MIC [2, 33] was 32 mg/L and the MIC [2, 34] was 16 mg/L. It also gave an MIC [2, 35] of 16 mg/L, an MIC [2, 36] of 16 mg/L and an MIC [2, 37] of 16 mg/L. The MIC [2, 38] was 32 mg/L, the MIC [2, 39] was 16 mg/L and the MIC [2, 40] was 16 mg/L. For the same substance, the MIC [2, 41] was 16 mg/L, the MIC [2, 42] was 16 mg/L and the MIC [2, 43] was 8 mg/L. For the same substance, the MIC [2, 44] was 8 mg/L.
novispirin G10 was tested, and the MIC [1, 4] was 64 mg/L, the MIC [1, 5] was 32 mg/L and the MIC [1, 6] was 64 mg/L. For the same substance, the MIC [1, 7] was 64 mg/L, the MIC [1, 8] was 32 mg/L and the MIC [1, 9] was 32 mg/L. For the same substance, the MIC [1, 10] was 64 mg/L, the MIC [1, 11] was 64 mg/L and the MIC [1, 12] was 32 mg/L. It also gave an MIC [1, 13] of 64 mg/L, an MIC [1, 14] of 96 mg/L and an MIC [1, 15] of 128 mg/L. It also gave an MIC [1, 16] of 64 mg/L, an MIC [1, 17] of 64 mg/L and an MIC [1, 18] of 64 mg/L. For the same substance, the MIC [1, 19] was 16 mg/L, the MIC [1, 20] was 64 mg/L and the MIC [1, 21] was 32 mg/L. It also gave an MIC [1, 22] of 64 mg/L, an MIC [1, 23] of 32 mg/L and an MIC [1, 24] of 64 mg/L. For the same substance, the MIC [1, 25] was 128 mg/L, the MIC [1, 26] was 64 mg/L and the MIC [1, 27] was 32 mg/L. For the same substance, the MIC [1, 28] was 64 mg/L, the MIC [2, 29] was 128 mg/L and the MIC [2, 30] was 64 mg/L. It also gave an MIC [2, 31] of 128 mg/L, an MIC [2, 33] of 128 mg/L and an MIC [2, 34] of 128 mg/L. The MIC [2, 35] was 256 mg/L, the MIC [2, 36] was 128 mg/L and the MIC [2, 37] was 128 mg/L. It also gave an MIC [2, 38] of 128 mg/L, an MIC [2, 39] of 64 mg/L and an MIC [2, 40] of 128 mg/L. The MIC [2, 41] was 64 mg/L, the MIC [2, 42] was 128 mg/L and the MIC [2, 43] was 2 mg/L. The MIC [2, 44] was 8 mg/L and the “minimum bactericidal concentrations (MBC)” value [3] was “identical to the MICs”.

From publication PMC2639596, “Antimicrobial peptides effectively kill a broad spectrum of Listeria monocytogenes and Staphylococcus aureus strains independently of origin, sub-type, or virulence factor expression” (BMC Microbiology, 2008)
